Holding throughout (type): cell-based
The test system of one assay is COR-L105. The experiment in a line: CellTiter-Glo proliferation assay, COR-L105. The following applies: Homo sapiens, COR-L105, 120 h, COR-L105, 5 days; for Emax: read-out: COR-L105 Span (max). The method, boiled down: (§1)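 Both lines grown in RPMI-1640 + 10% FBS. COR-L105 plated flat at 1,000 cells/well overnight; NCI-H1650 grown as spheroids, 3,000 cells/well, 72 h. Compounds at 0.508 nM-10 μM final for 5 days, 37° C. ATP read by CellTiter-Glo (3D version for spheroids); IC50 from variable-slope fit normalized to untreated cells.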

In a further assay the test system is NCI-H1650. The experiment in a line: CellTiter-Glo 3D proliferation assay, NCI-H1650 spheroids. The following applies: Homo sapiens, NCI-H1650, 120 h, 5 days; for Emax: read-out: NCI-H1650 Span (Amax). The method, boiled down: as §1
For orientation: Cellular ATP, detected with luciferase, serves as a proxy for viable cell number.

The subject of assay [1] is MOLT-4 cells. Kind of assay: MOLT-4 cell viability, MTT assay. The following applies: Homo sapiens, MOLT-4, 48 h. The method, boiled down: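 MOLT-4 cells in RPMI 1640 with 10% FBS were exposed to compounds for 48 h at 9 concentrations (3.16-fold dilutions, triplicates). After 4 h with MTT and overnight SDS/HCl solubilisation, absorbance was read at 540 nm. IC50 came from four-parameter fits versus control, as the mean of ≥2 independent experiments.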
On the technique in general: Tetrazolium assays rely on reduction of a dye to a coloured formazan, in cell work by metabolically active cells.

In assay [2] the test system is MOLT-4 cells. Kind of assay: MOLT-4 cell viability, CTG assay. To be noted: Homo sapiens, MOLT-4, 48 h. The procedure, abridged: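 Viability read as total ATP luminescence (CTG) after 48 h compound treatment, 11 points at 5-fold spacing in triplicate, cells in RPMI 1640/10% FBS. IC50 is the concentration halving signal relative to control, four-parameter fit, averaged over at least 2 experiments.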

pIC50: −log10 of the molar value.

The text below walks through data of patent publication US20240376094A2, “SELECTIVE BCL-XL PROTAC COMPOUNDS AND METHODS OF USE” (Les Laboratoires Servier, priority 2021, published 2024).

In general, pIC50 refers to −log10 of the IC50, conventionally taken in molar units. On to `Cc1ncsc1-c1ccc([C@H](C)NC(=O)[C@@H]2C[C@@H](O)CN2C(=O)[C@@H](NC(=O)CCCCCCCCCCCN2CCN(CC#Cc3ccc(OCCCc4sc(N5CCCc6c5nnc(Nc5nc7ccccc7s5)c6C)nc4C(=O)O)c(F)c3)CC2)C(C)(C)C)cc1` [Example 51, 2-(3-(benzo[d]thiazol-2-ylamino)-4-methyl-6,7-dihydropyrido [2,3-c]pyridazin-8(5H)-yl)-5-(3-(2-fluoro-4-(3-(4-(12-(((S)-1-((2S,4R)-4-hydroxy-2-(((S)-1-(4-(4-methylthiazol-5-yl)phenyl)ethyl)carbamoyl)pyrrolidin-1-yl)-3,3-dimethyl-1-oxobutan-2-yl)amino)-12-oxododecyl)piperazin-1-yl)prop-1-yn-1-yl)phenoxy)propyl)thiazole-4-carboxylic acid], for which, in the assay with COR-L105, the negative-log IC50 (pIC50) is 7.43 and the Emax is 72.8%. In the assay on NCI-H1650, the pIC50 was 8.37 and the Emax came out at 90.8%.
In the case of `Cc1ncsc1-c1ccc([C@H](C)NC(=O)C2CC(O)CN2C(=O)C(NC(=O)CCCCCCCCCCCN2CCN(CC#Cc3ccc(OCCCc4sc(N5CCCc6c5nnc(Nc5nc7ccccc7s5)c6C)nc4C(=O)O)c(F)c3)CC2)C(C)(C)C)cc1` (stereo in doubt) [Example 31, 2-[3-(1,3-benzothiazol-2-ylamino)-4-methyl-6,7-dihydro-5H-pyrido[2,3-c]pyridazin-8-yl]-5-[3-[2-fluoro-4-[3-[4-[12-[[(1S)-1-[(2S,4R)-4-hydroxy-2-[[(1S)-1-[4-(4-methylthiazol-5-yl)phenyl]ethyl]carbamoyl]pyrrolidine-1-carbonyl]-2,2-dimethyl-propyl]amino]-12-oxo-dodecyl]piperazin-1-yl]prop-1-ynyl]phenoxy]propyl] thiazole-4-carboxylic acid], the pIC50 in the assay with MOLT-4 cells [1] is 8.09; in the assay with MOLT-4 cells [2] it was 8.15.
`Cc1ncsc1-c1ccc([C@H](C)NC(=O)[C@@H]2C[C@@H](O)CN2C(=O)[C@@H](NC(=O)CCCC(=O)N2CCN(CC#Cc3ccc(OCCCc4sc(N5CCCc6c5nnc(Nc5nc7ccccc7s5)c6C)nc4C(=O)O)c(F)c3)CC2)C(C)(C)C)cc1` [Example 35, 2-(3-(benzo[d]thiazol-2-ylamino)-4-methyl-6,7-dihydropyrido [2,3-c]pyridazin-8(5H)-yl)-5-(3-(2-fluoro-4-(3-(4-(5-(((S)-1-((2S,4R)-4-hydroxy-2-(((S)-1-(4-(4-methylthiazol-5-yl)phenyl)ethyl)carbamoyl)pyrrolidin-1-yl)-3,3-dimethyl-1-oxobutan-2-yl)amino)-5-oxopentanoyl)piperazin-1-yl)prop-1-yn-1-yl)phenoxy)propyl)thiazole-4-carboxylic acid]: the pIC50 with COR-L105 is 7.04; in the assay with NCI-H1650, 8.11. In addition, the Emax in the assay with COR-L105 was found to be 87.9%; in the assay with NCI-H1650, 88.5%.
With `Cc1ncsc1-c1ccc([C@H](C)NC(=O)[C@@H]2C[C@@H](O)CN2C(=O)[C@@H](NC(=O)CCCCCCCCN(C)CCOC23CC4(C)CC(C)(CC(Cn5ncc(-c6ccc(N7CCCc8c7nnc(Nc7nc9ccccc9s7)c8C)nc6C(=O)O)c5C)(C4)C2)C3)C(C)(C)C)cc1` [Example 5, 6-[3-(1,3-benzothiazol-2-ylamino)-4-methyl-6,7-dihydro-5H-pyrido[2,3-c]pyridazin-8-yl]-3-[1-[[3-[2-[[9-[[(1S)-1-[(2S,4R)-4-hydroxy-2-[[(1S)-1-[4-(4-methylthiazol-5-yl)phenyl]ethyl]carbamoyl]pyrrolidine-1-carbonyl]-2,2-dimethyl-propyl]amino]-9-oxo-nonyl]-methyl-amino]ethoxy]-5,7-dimethyl-1-adamantyl]methyl]-5-methyl-pyrazol-4-yl]pyridine-2-carboxylic acid], the pIC50 in the assay on MOLT-4 cells [1] was 8.45; in the assay on MOLT-4 cells [2], 7.80.
As for `Cc1ncsc1-c1ccc([C@H](C)NC(=O)[C@@H]2C[C@@H](O)CN2C(=O)[C@@H](NC(=O)CC23CC4CC(C2)CC(CC(=O)N2CCN(CC#Cc5ccc(OCCCc6sc(N7CCCc8c7nnc(Nc7nc9ccccc9s7)c8C)nc6C(=O)O)c(F)c5)CC2)(C4)C3)C(C)(C)C)cc1` [Example 42, 2-(3-(benzo[d]thiazol-2-ylamino)-4-methyl-6,7-dihydropyrido [2,3-c]pyridazin-8(5H)-yl)-5-(3-(2-fluoro-4-(3-(4-(2-((3S,5R)-3-(2-(((S)-1-((2S,4R)-4-hydroxy-2-(((S)-1-(4-(4-methylthiazol-5-yl)phenyl)ethyl)carbamoyl)pyrrolidin-1-yl)-3,3-dimethyl-1-oxobutan-2-yl)amino)-2-oxoethyl)adamantan-1-yl)acetyl)piperazin-1-yl)prop-1-yn-1-yl)phenoxy)propyl)thiazole-4-carboxylic acid], in the assay on COR-L105, the pIC50 was 6.54 and the Emax came out at 91.8%. Besides, in the assay with NCI-H1650, the negative-log IC50 (pIC50) was 8.47 and the Emax was determined as 137%.
As to `Cc1ncsc1-c1ccc([C@H](C)NC(=O)[C@@H]2C[C@@H](O)CN2C(=O)[C@@H](NC(=O)CCCCCCCCCCC(=O)N2CCN(CCOC34CC5(C)CC(C)(CC(Cn6ncc(-c7ccc(N8CCCc9c8nnc(Nc8nc%10ccccc%10s8)c9C)nc7C(=O)O)c6C)(C5)C3)C4)CC2)C(C)(C)C)cc1` [Example 47, 6-(3-(benzo[d]thiazol-2-ylamino)-4-methyl-6,7-dihydropyrido [2,3-c]pyridazin-8(5H)-yl)-3-(1-(((1r,3s,5R,7S)-3-(2-(4-(12-(((S)-1-((2S,4R)-4-hydroxy-2-(((S)-1-(4-(4-methylthiazol-5-yl)phenyl)ethyl)carbamoyl)pyrrolidin-1-yl)-3,3-dimethyl-1-oxobutan-2-yl)amino)-12-oxododecanoyl)piperazin-1-yl)ethoxy)-5,7-dimethyladamantan-1-yl)methyl)-5-methyl-1H-pyrazol-4-yl)picolinic acid], in the assay on COR-L105, the pIC50 is 6.64 and the Emax was found to be 97.6%. In the assay with NCI-H1650, the pIC50 is 7.90 and the Emax is 97.1%.
For `Cc1ncsc1-c1ccc([C@H](C)NC(=O)[C@@H]2C[C@@H](O)CN2C(=O)[C@@H](NC(=O)CCCCCCCCCCC(=O)N2CCN(CC#Cc3ccc(OCCCc4sc(N5CCCc6c5nnc(Nc5nc7ccccc7s5)c6C)nc4C(=O)O)c(F)c3)CC2)C(C)(C)C)cc1` [Example 46, 2-(3-(benzo[d]thiazol-2-ylamino)-4-methyl-6,7-dihydropyrido [2,3-c]pyridazin-8(5H)-yl)-5-(3-(2-fluoro-4-(3-(4-(12-(((S)-1-((2S,4R)-4-hydroxy-2-(((S)-1-(4-(4-methylthiazol-5-yl)phenyl)ethyl)carbamoyl)pyrrolidin-1-yl)-3,3-dimethyl-1-oxobutan-2-yl)amino)-12-oxododecanoyl)piperazin-1-yl)prop-1-yn-1-yl)phenoxy)propyl)thiazole-4-carboxylic acid] the same measures were 6.79, 101%, 8.31 and 83.2%.
For the compound `Cc1ncsc1-c1ccc(CNC(=O)[C@@H]2C[C@@H](O)CN2C(=O)[C@@H](NC(=O)CCCCCCC(=O)N2CCN(CC#Cc3ccc(OCCCc4sc(N5CCCc6c5nnc(Nc5nc7ccccc7s5)c6C)nc4C(=O)O)c(F)c3)CC2)C(C)(C)C)cc1` [Example 33, 2-(3-(benzo[d]thiazol-2-ylamino)-4-methyl-6,7-dihydropyrido [2,3-c]pyridazin-8(5H)-yl)-5-(3-(2-fluoro-4-(3-(4-(8-(((S)-1-((2S,4R)-4-hydroxy-2-((4-(4-methylthiazol-5-yl)benzyl)carbamoyl)pyrrolidin-1-yl)-3,3-dimethyl-1-oxobutan-2-yl)amino)-8-oxooctanoyl)piperazin-1-yl)prop-1-yn-1-yl)phenoxy)propyl) thiazole-4-carboxylic acid], in the assay on COR-L105, the negative-log IC50 (pIC50) was 7.03 and the Emax came to 76.4%. In the assay with NCI-H1650, the pIC50 was 8.09 and the Emax was found to be 89.1%.
For `Cc1ncsc1-c1ccc(CNC(=O)[C@@H]2C[C@@H](O)CN2C(=O)[C@@H](NC(=O)CCCCCCCCCCC(=O)N2CCN(CC#Cc3ccc(OCCCc4sc(N5CCCc6c5nnc(Nc5nc7ccccc7s5)c6C)nc4C(=O)O)c(F)c3)CC2)C(C)(C)C)cc1` [Example 48, 2-(3-(benzo[d]thiazol-2-ylamino)-4-methyl-6,7-dihydropyrido [2,3-c]pyridazin-8(5H)-yl)-5-(3-(2-fluoro-4-(3-(4-(12-(((S)-1-((2S,4R)-4-hydroxy-2-((4-(4-methylthiazol-5-yl)benzyl)carbamoyl)pyrrolidin-1-yl)-3,3-dimethyl-1-oxobutan-2-yl)amino)-12-oxododecanoyl)piperazin-1-yl)prop-1-yn-1-yl)phenoxy)propyl)thiazole-4-carboxylic acid] the same measures were 6.95, 94%, 7.62 and 88.6%.
